From PubChem BioAssay (NCI)
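Interpolation was linear, between the two tested concentrations surrounding the appropriate level; five concentrations were tested over 48 hours in 96-well plates. The concentration for full growth arrest is given as TGI.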 Where a SMILES comes first, the peptide text is derived from it. The star is where a group is joined. Boc = CC(C)(C)OC(=O)*

Columns and labels:
Assay in all cases: inhibition of tumour cell growth, NCI panel, 48 h
A498 renal = test system: A498 renal
ACHN renal = test system: ACHN renal
CAKI-1 renal = test system: CAKI-1 renal
COLO 205 colon = test system: COLO 205 colon
DU-145 prostate = test system: DU-145 prostate
HCT-116 colon = test system: HCT-116 colon
HT29 colon = test system: HT29 colon
KM12 colon = test system: KM12 colon
MDA-MB-435 = test system: MDA-MB-435
MDA-N = test system: MDA-N
NCI-H522 lung = test system: NCI-H522 lung
OVCAR-3 ovarian = test system: OVCAR-3 ovarian
OVCAR-5 ovarian = test system: OVCAR-5 ovarian
SF-539 CNS = test system: SF-539 CNS
SK-MEL-28 melanoma = test system: SK-MEL-28 melanoma
SNB-19 CNS = test system: SNB-19 CNS
OVCAR-4 ovarian = test system: OVCAR-4 ovarian
TK-10 renal = test system: TK-10 renal

Row | SMILES | TGI (A498 renal) [µM] | TGI (ACHN renal) [µM] | TGI (CAKI-1 renal) [µM] | TGI (COLO 205 colon) [µM] | TGI (DU-145 prostate) [µM] | TGI (HCT-116 colon) [µM] | TGI (HT29 colon) [µM] | TGI (KM12 colon) [µM] | TGI (MDA-MB-435) [µM] | TGI (MDA-N) [µM] | TGI (NCI-H522 lung) [µM] | TGI (OVCAR-3 ovarian) [µM] | TGI (OVCAR-5 ovarian) [µM] | TGI (SF-539 CNS) [µM] | TGI (SK-MEL-28 melanoma) [µM] | TGI (SNB-19 CNS) [µM] | TGI (OVCAR-4 ovarian) [µM] | TGI (TK-10 renal) [µM]
1 | CCOc1ccc(N2C(=O)NC3(c4ccccc4)N(C)C(=O)N(C)C23c2ccccc2)cc1 (centres undefined) | > 100 | > 100 | > 100 | > 100 | > 100 | > 100 | > 100 | > 100 | > 100 | > 100 | > 100 | > 100 | > 100 | > 100 | > 100 | > 100 |  | 
2 | OCC1C2CCC3(OCCO3)C12 (centres undefined) |  | > 100 | > 100 | > 100 | > 100 | > 100 | > 100 | > 100 | > 100 | > 100 | > 100 | > 100 | > 100 | > 100 | > 100 | > 100 | > 100 | > 100
3 | C=C1C2C[C@@H]3O[C@H]4C[C@H]5O[C@@]6(C[C@@H]7O[C@]8(C[C@H](C)[C@@H]9O[C@@H]%10CC(C=O)O[C@@H]%10C[C@@H]9O8)C[C@H](C)[C@@H]7O6)C[C@H]5O[C@H]4[C@H](C)[C@H]3OC(=O)C[C@H]3CC[C@@H]4OC5[C@H]6O[C@]7(CC[C@H]8CC(=C)[C@H](CC[C@@H](C[C@H]1C)O2)O8)CC6O[C@@H]5[C@@H](O7)[C@H]4O3 (some centres undefined) | > 1 | > 1 | > 1 | 0.00103 | > 1 | > 1 |  |  | < 0.0001 | < 0.0001 | < 0.0001 | > 1 |  |  |  | > 1 | > 1 | > 1
4 | Clc1cc2nc(C3CCCCO3)[nH]c2cc1Cl (centres undefined) |  | > 100 | > 100 | > 100 | > 100 | > 100 | 25.8 | > 56.9 | > 44.6 | 22.8 | 18.5 | 23.9 | > 100 | 97 | > 100 | > 100 | > 100 | > 100
5 | Cc1ccc(NC(=O)CC(=O)N2N=C(N3CCCCC3)CC2c2ccccc2)cc1 (centres undefined) | > 100 | > 100 | > 100 | > 100 | > 100 | > 100 | > 100 | > 100 | > 100 | > 100 | > 100 | > 100 | > 100 |  | > 100 | > 100 | > 100 | > 100
6 | CC1=NNC(=O)C1C1CC(c2c[nH]c3ccccc23)=NN(c2ccccc2)C1=O (centres undefined) | > 100 | > 100 | > 100 | > 100 | > 100 | > 100 | > 100 | > 100 | > 100 | > 100 | 77.9 | > 100 | > 100 | > 100 | > 100 | > 100 |  | > 100
7 | COc1ccc(C[n+]2cccc(O)c2)cc1 | > 100 | > 100 |  |  | > 100 | > 100 | > 100 | > 100 | > 100 | > 100 |  | > 100 | > 100 | > 100 | > 100 | > 100 |  | > 100
8 | CCOC(=O)NC(Nc1ccc(S(=O)(=O)Nc2ccc(OC)nn2)cc1)(C(F)(F)F)C(F)(F)F | 54.6 | 90.7 | > 100 | 58.7 | > 100 | 44.5 | > 100 | > 100 | 35.8 | > 100 |  | 55.7 | > 100 | 36.5 | 55.6 | > 100 | > 100 | 68.8
9 | Cc1nn(C(=O)c2ccc(Cl)cc2)c2c1C(c1ccccc1O)SC(N)=N2 (centres undefined) |  | > 10 | > 10 | > 10 | > 10 | > 10 | > 10 | > 10 | > 10 | > 10 | > 10 | > 10 | > 10 | > 10 | > 10 | > 10 | > 10 | > 10
10 | Cc1cc(O)c2c(c1)C(C1OC(CO)C(O)C(O)C1O)c1cc(O)cc(O)c1C2=O (centres undefined) | > 100 | > 100 |  | > 100 | > 100 | > 100 | > 100 |  | > 100 | > 100 |  | > 100 | > 100 |  | > 100 | > 100 | > 100 | > 100
11 | O=C(O)CCNc1ncc2c(n1)-c1ccccc1OC2 |  | > 100 | > 100 | > 100 | > 100 | > 100 | > 100 | > 100 | > 100 | > 100 | > 100 | > 100 | > 100 | > 100 | > 100 | > 100 | > 100 | > 100
12 | O=C(NC(=O)c1ccccc1)OC(c1ccccc1)C1CO1 (centres undefined) |  | > 100 | > 100 | > 100 | > 100 | > 100 | > 100 | > 100 | > 100 | > 100 | > 100 | > 100 | > 100 | > 100 | > 100 | > 100 | > 100 | > 100
13 | CCCCCCc1cc2cc(C(=O)NCc3ccccc3)c(=N)oc2cc1O | > 100 | > 100 | > 100 | > 100 | > 100 | > 100 | > 100 | > 100 | > 100 | > 100 | > 100 | > 100 | > 100 | > 100 | > 100 | > 100 | > 100 | 
14 | COc1ccc(C(=O)N2CCN(c3ccc4c(c3)OCC(=O)N4)CC2)cc1OC |  | > 100 |  | > 100 | > 100 | > 100 | > 100 | > 100 | > 100 | > 100 | > 100 | > 100 | > 100 | > 100 | > 100 | > 100 | > 100 | > 100
15 | CN1CN(c2ccccc2)C2(CCN(C3Nc4ccccc4O3)CC2)C1=O (centres undefined) | 42.1 | 55.9 | > 100 | 30.1 | 60.1 | 29.8 | 33 | 51.5 | 42.1 | 49.1 | 39.2 | 31.7 | 48.2 | 28.9 | 47.2 | 74.4 |  | 46.3
16 | O=C1NC(=S)N/C1=C\c1ccc(Cl)cc1 |  |  | > 100 | > 100 | > 100 | > 100 | > 100 | > 100 | > 100 | > 100 | > 100 | > 100 | > 100 | > 100 | > 100 | > 100 | > 100 | > 100
17 | N#CC(c1ccccc1)N(CCc1ccccc1)C(=O)c1ccc(C(=O)N(CCc2ccccc2)C(C#N)c2ccccc2)cc1 (centres undefined) | 75.3 | 73.5 | > 100 | 55.6 | > 100 | 28.4 | 38.6 | > 100 | 58 | 65.1 |  | 47 | 78.7 | 42.6 | 51.3 | > 100 | 64 | 29.8
18 | Cc1cccc2c(N)c3cccc(C(=O)NCC[N+](C)(C)Cc4ccc(S(C)(=O)=O)cc4)c3nc12 | 65 | > 100 | > 100 | > 100 | > 100 | > 100 | > 100 | > 100 | > 100 | > 100 |  | > 100 | > 100 | > 100 | > 100 | > 100 | > 100 | > 100
19 | Cc1n[nH]c(=O)n1Nc1ccccc1 |  | > 100 | > 100 | > 100 | > 100 | > 100 | > 100 | > 100 | > 100 | > 100 | > 100 | > 100 | > 100 | > 100 | > 100 | > 100 | > 100 | 
20 | CC(NC(=O)C1CCCN1C(=O)CNC(=O)OC(C)(C)C)C(=O)O (stereo not drawn) (Boc-Gly-Pro-Ala-OH; configuration not given here) |  | > 100 | > 100 | > 100 | > 100 |  | > 100 | > 100 | > 100 | > 100 | > 100 | > 100 | > 100 | > 100 | > 100 | > 100 |  | > 100
21 | Cc1ccc(N=NN(C)C(C)C(O)Cc2ccccc2)cc1 (centres undefined) |  | > 100 | > 100 | > 100 | > 100 | > 100 | > 100 | > 100 | > 100 | > 100 |  | > 100 | > 100 |  | > 100 | > 100 | > 100 | > 100
22 | CC(O)CC(=O)CO[C@H]1[C@H](O)[C@@H](O)[C@@H](O)[C@@H]2NC(=O)c3c(cc4c(c3O)OCO4)[C@H]21 (some centres undefined) | 0.072 | 0.613 |  | 0.135 | 0.0818 | 0.345 | 0.179 | 0.202 | 0.175 | 0.446 | 0.0962 | 0.609 | 0.48 | 0.0712 | 8.03 | 0.0754 | 0.287 | 0.238
23 | CCCCC(O)(c1ccccc1)C(O)(c1ccccc1)c1c(F)c(F)c(F)c(F)c1F (centres undefined) | 49.4 | 72.6 |  |  | > 100 | 65 | 32.3 |  | > 100 | 39.3 |  | 32.6 | 41.1 |  | 86.1 | > 100 | > 100 | 84.8
24 | CC1(c2nc3ccccc3[nH]2)CCC(C#N)C(C)(C)O1 (centres undefined) |  | > 100 | > 100 | > 100 | > 100 | > 100 | > 100 | > 100 | > 100 | > 100 | > 100 | > 100 | > 100 | > 100 | > 100 | > 100 | > 100 | > 100
25 | O=C(O)C1CC(C2CCCCN2)CN2CCCCC12 (centres undefined) | > 100 | > 100 | > 100 | > 100 | > 100 | > 100 | > 100 | > 100 | > 100 | > 100 |  | > 100 | > 100 | > 100 | > 100 | > 100 | > 100 | > 100
26 | CN1C(=O)N/C(=C\c2ccc(S(=O)(=O)N/N=C/c3ccccc3)cc2)C1=O | > 100 | > 100 | > 100 | > 100 | > 100 | > 100 | > 100 | 82.1 | > 100 | > 100 |  | > 100 | > 100 |  | > 100 | > 100 | > 100 | > 100
27 | COc1ccc(-c2[nH]c(-c3ccc(OC)cc3)c(-c3ccccn3)c2-c2ccccn2)cc1 | > 100 | > 100 | > 100 | 61.1 | > 100 | > 100 | 49.3 | > 100 | > 100 | > 100 |  | > 100 | > 100 | > 100 |  | > 100 |  | > 100
